# From patent publication US20240270762A1, “PENICILLIN-BINDING PROTEIN INHIBITORS” (priority 2021, published 2024)
# Tests used:
# [1] = tested on: P. aeruginosa CDC-0110; assay: microbe, parasite or virus in culture; type: cell-based; details: Pseudomonas aeruginosa, CDC0110, read-out: Minimum inhibitory concentration, P. aeruginosa CDC-0110
# [2] = tested on: P. aeruginosa CDC-0090; assay: microbe, parasite or virus in culture; type: cell-based; details: Pseudomonas aeruginosa, CDC0090, read-out: Minimum inhibitory concentration, P. aeruginosa CDC-0090
# [3] = target: T1, PBP3 from Acinetobacter baumannii (ATCC 19606) (Acinetobacter baumannii, UniProt A0ABX6CK25); assay: Bocillin-FL fluorescence polarization competition binding, A. baumannii PBP3; details: fluorescence polarization competition binding assay using Bocillin-FL; read-out: A. baumannii PBP3 Potency
# T1 sequence (A0ABX6CK25 64-610): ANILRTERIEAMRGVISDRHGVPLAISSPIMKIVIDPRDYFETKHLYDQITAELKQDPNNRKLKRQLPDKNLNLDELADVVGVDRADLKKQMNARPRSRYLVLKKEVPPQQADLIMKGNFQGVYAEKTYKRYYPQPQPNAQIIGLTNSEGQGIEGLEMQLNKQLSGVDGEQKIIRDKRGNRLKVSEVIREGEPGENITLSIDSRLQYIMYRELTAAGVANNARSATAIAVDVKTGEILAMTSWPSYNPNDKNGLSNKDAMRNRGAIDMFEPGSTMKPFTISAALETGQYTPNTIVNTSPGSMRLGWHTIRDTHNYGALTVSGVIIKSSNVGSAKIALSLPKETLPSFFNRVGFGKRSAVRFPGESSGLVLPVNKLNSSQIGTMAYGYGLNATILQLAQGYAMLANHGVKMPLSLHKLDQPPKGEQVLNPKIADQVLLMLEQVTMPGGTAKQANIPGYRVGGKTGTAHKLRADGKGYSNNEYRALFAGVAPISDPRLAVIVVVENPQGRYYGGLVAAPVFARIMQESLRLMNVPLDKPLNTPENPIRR
# Summary of the method: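 Purified PBPs pre-incubated with inhibitor (E. coli PBP3 1.5 μM, 30 min; P. aeruginosa PBP3 0.75 μM, A. baumannii PBP1a 1 μM and PBP3 0.2 μM, 15 min), then Bocillin-FL 0.1 μM (0.05 μM for PBP1a) added; FP read up to 60 min. EC50 = concentration halving bound Bocillin-FL.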
# [4] = tested on: P. aeruginosa (ΔmexAB-oprM); assay: Broth microdilution MIC in iron-depleted CAMHB (IDM); type: cell-based; details: Pseudomonas aeruginosa; iron-depleted CAMHB (IDM); […]; read-out: Minimum inhibitory concentration, P. aeruginosa ΔmexAB-oprM
SMILES,MIC [1],MIC [2],IC50 [3],MIC [4]
"Cc1cc(C(=O)NCCCN2CCN(C(=O)NC(C(=O)N[C@H]3Cc4ccc(F)c(C(=O)O)c4OB3O)c3cc(F)c(O)c(O)c3Cl)C(=O)C2=O)c(F)cn1 (stereo partly drawn) [Example 301, (3R)-3-(2-(2-chloro-5-fluoro-3,4-dihydroxyphenyl)-2-(4-(3-(5-fluoro-2-methylisonicotinamido)propyl)-2,3-dioxopiperazine-1-carboxamido)acetamido)-7-fluoro-2-hydroxy-3,4-dihydro-2H-benzo[e][1,2]oxaborinine-8-carboxylic acid]",< 1 µg/mL,< 1 µg/mL,< 10 µM,< 1 µg/mL
"O=C(NCCCN1CCN(C(=O)NC(C(=O)N[C@H]2Cc3ccc(F)c(C(=O)O)c3OB2O)c2cc(F)c(O)c(O)c2Cl)C(=O)C1=O)c1ccncc1Cl (stereo partly drawn) [Example 295, (3R)-3-(2-(2-chloro-5-fluoro-3,4-dihydroxyphenyl)-2-(4-(3-(3-chloroisonicotinamido)propyl)-2,3-dioxopiperazine-1-carboxamido)acetamido)-7-fluoro-2-hydroxy-3,4-dihydro-2H-benzo[e][1,2]oxaborinine-8-carboxylic acid]",< 1 µg/mL,< 1 µg/mL,< 10 µM,< 1 µg/mL
"O=C(NCCCN1CCN(C(=O)N[C@@H](C(=O)N[C@H]2Cc3ccc(F)c(C(=O)O)c3OB2O)c2cc(F)c(O)c(O)c2Cl)C(=O)C1=O)c1cccc(O)c1Cl [Example 303, (R)-3-((R)-2-(4-(3-(2-chloro-3-hydroxybenzamido)propyl)-2,3-dioxopiperazine-1-carboxamido)-2-(2-chloro-5-fluoro-3,4-dihydroxyphenyl)acetamido)-7-fluoro-2-hydroxy-3,4-dihydro-2H-benzo[e][1,2]oxaborinine-8-carboxylic acid]",< 1 µg/mL,< 1 µg/mL,< 10 µM,< 1 µg/mL
"O=C(O)c1c(F)ccc2c1OB(O)[C@@H](NC(=O)[C@H](NC(=O)N1CCN(C3CCN(C(=O)Nc4ccc(O)cc4)CC3)C1=O)c1cc(F)c(O)c(O)c1Cl)C2 (single isomer, unassigned) [Example 468]",< 1 µg/mL,< 1 µg/mL,< 10 µM,< 1 µg/mL
O=C(NCCCN1CCN(C(=O)NC(C(=O)N[C@H]2Cc3ccc(F)c(C(=O)O)c3OB2O)c2cc(F)c(O)c(O)c2Cl)C(=O)C1=O)c1cc(F)ncc1F (mixture of isomers) [Example 405],2 to 4 µg/mL,2 to 4 µg/mL,< 10 µM,< 1 µg/mL
"CS(=O)(=O)N1CCN(C(=O)N[C@@H](C(=O)N[C@H]2Cc3cccc(C(=O)O)c3OB2O)c2ccc(P(=O)(O)O)cc2)C1=O (single isomer, unassigned) [Example 6]",32 to 64 µg/mL,> 128 µg/mL,< 10 µM,8 to 16 µg/mL
"O=C(NCCN1CCN(C(=O)N[C@@H](C(=O)N[C@H]2Cc3ccc(F)c(C(=O)O)c3OB2O)c2cc(F)c(O)c(O)c2Cl)C1=O)Nc1ccc(O)cc1 [Example 279, (R)-3-((R)-2-(2-chloro-5-fluoro-3,4-dihydroxyphenyl)-2-(3-(2-(3-(4-hydroxyphenyl)ureido)ethyl)-2-oxoimidazolidine-1-carboxamido)acetamido)-7-fluoro-2-hydroxy-3,4-dihydro-2H-benzo[e][1,2]oxaborinine-8-carboxylic acid]",< 1 µg/mL,2 to 4 µg/mL,< 10 µM,< 1 µg/mL
"O=C(NCCS(=O)(=O)N1CCN(C(=O)N[C@@H](C(=O)N[C@H]2Cc3ccc(F)c(C(=O)O)c3OB2O)c2cc(F)c(O)c(O)c2Cl)C1=O)c1ccc(O)cc1 [Example 287, (R)-3-((R)-2-(2-chloro-5-fluoro-3,4-dihydroxyphenyl)-2-(3-((2-(4-hydroxybenzamido)ethyl)sulfonyl)-2-oxoimidazolidine-1-carboxamido)acetamido)-7-fluoro-2-hydroxy-3,4-dihydro-2H-benzo[e][1,2]oxaborinine-8-carboxylic acid]",< 1 µg/mL,2 to 4 µg/mL,< 10 µM,< 1 µg/mL
"O=C(O)c1c(F)ccc2c1OB(O)[C@@H](NC(=O)C(NC(=O)N1CCN(C3CCN(C(=O)c4ccc(O)cc4)CC3)C(=O)C1=O)c1cc(F)c(O)c(O)c1Cl)C2 (stereo partly drawn) [Example 427, (3R)-3-(2-(2-chloro-5-fluoro-3,4-dihydroxyphenyl)-2-(4-(1-(4-hydroxybenzoyl)piperidin-4-yl)-2,3-dioxopiperazine-1-carboxamido)acetamido)-7-fluoro-2-hydroxy-3,4-dihydro-2H-benzo[e][1,2]oxaborinine-8-carboxylic acid]",< 1 µg/mL,2 to 4 µg/mL,< 10 µM,< 1 µg/mL
"O=C(NCCCN1CCN(C(=O)NC(C(=O)N[C@H]2Cc3ccc(F)c(C(=O)O)c3OB2O)c2cc(F)c(O)c(O)c2Cl)C(=O)C1=O)c1ccc(O)c(F)c1 (stereo partly drawn) [Example 304, (3R)-3-(2-(2-chloro-5-fluoro-3,4-dihydroxyphenyl)-2-(4-(3-(3-fluoro-4-hydroxybenzamido)propyl)-2,3-dioxopiperazine-1-carboxamido)acetamido)-7-fluoro-2-hydroxy-3,4-dihydro-2H-benzo[e][1,2]oxaborinine-8-carboxylic acid]",< 1 µg/mL,< 1 µg/mL,< 10 µM,< 1 µg/mL
O=C(NCCCN1CCN(C(=O)N[C@@H](C(=O)N[C@H]2Cc3ccc(F)c(C(=O)O)c3OB2O)c2cc(F)c(O)c(O)c2Cl)C(=O)C1=O)c1c(F)cc(O)cc1F (racemic) [Example 420],< 1 µg/mL,< 1 µg/mL,< 10 µM,< 1 µg/mL
"O=C(NCCCN1CCN(C(=O)N[C@@H](C(=O)N[C@H]2Cc3ccc(F)c(C(=O)O)c3OB2O)c2cc(F)c(O)c(O)c2Cl)C(=O)C1=O)c1cc(F)c(O)c(F)c1 [Example 422, (R)-3-((R)-2-(2-chloro-5-fluoro-3,4-dihydroxyphenyl)-2-(4-(3-(3,5-difluoro-4-hydroxybenzamido)propyl)-2,3-dioxopiperazine-1-carboxamido)acetamido)-7-fluoro-2-hydroxy-3,4-dihydro-2H-benzo[e][1,2]oxaborinine-8-carboxylic acid]",< 1 µg/mL,2 to 4 µg/mL,< 10 µM,< 1 µg/mL
"Cc1cc(C(=O)NCCCN2CCN(C(=O)N[C@@H](C(=O)N[C@H]3Cc4ccc(F)c(C(=O)O)c4OB3O)c3cc(F)c(O)c(O)c3Cl)C(=O)C2=O)ccn1 [Example 298, (R)-3-((R)-2-(2-chloro-5-fluoro-3,4-dihydroxyphenyl)-2-(4-(3-(2-methylisonicotinamido)propyl)-2,3-dioxopiperazine-1-carboxamido)acetamido)-7-fluoro-2-hydroxy-3,4-dihydro-2H-benzo[e][1,2]oxaborinine-8-carboxylic acid]",< 1 µg/mL,< 1 µg/mL,< 10 µM,< 1 µg/mL
"O=C(NCCCN1CCN(C(=O)NC(C(=O)N[C@H]2Cc3ccc(F)c(C(=O)O)c3OB2O)c2cc(F)c(O)c(O)c2Cl)C(=O)C1=O)c1ccc(O)c(F)c1Cl (stereo partly drawn) [Example 418, (3R)-3-(2-(4-(3-(2-chloro-3-fluoro-4-hydroxybenzamido)propyl)-2,3-dioxopiperazine-1-carboxamido)-2-(2-chloro-5-fluoro-3,4-dihydroxyphenyl)acetamido)-7-fluoro-2-hydroxy-3,4-dihydro-2H-benzo[e][1,2]oxaborinine-8-carboxylic acid]",< 1 µg/mL,< 1 µg/mL,< 10 µM,< 1 µg/mL
"O=C(O)c1c(F)ccc2c1OB(O)[C@@H](NC(=O)C(NC(=O)N1CCN(C3CCN(S(=O)(=O)c4cccc(O)c4)CC3)C(=O)C1=O)c1cc(F)c(O)c(O)c1Cl)C2 (stereo partly drawn) [Example 428, (3R)-3-(2-(2-chloro-5-fluoro-3,4-dihydroxyphenyl)-2-(4-(1-((3-hydroxyphenyl)sulfonyl)piperidin-4-yl)-2,3-dioxopiperazine-1-carboxamido)acetamido)-7-fluoro-2-hydroxy-3,4-dihydro-2H-benzo[e][1,2]oxaborinine-8-carboxylic acid]",< 1 µg/mL,< 1 µg/mL,< 10 µM,< 1 µg/mL
"O=C(O)c1c(F)ccc2c1OB(O)[C@@H](NC(=O)C(NC(=O)N1CCN(C3CCN(C(=O)c4cc(O)cc(O)c4)CC3)C(=O)C1=O)c1cc(F)c(O)c(O)c1Cl)C2 (stereo partly drawn) [Example 309, (3R)-3-(2-(2-chloro-5-fluoro-3,4-dihydroxyphenyl)-2-(4-(1-(3,5-dihydroxybenzoyl)piperidin-4-yl)-2,3-dioxopiperazine-1-carboxamido)acetamido)-7-fluoro-2-hydroxy-3,4-dihydro-2H-benzo[e][1,2]oxaborinine-8-carboxylic acid]",< 1 µg/mL,2 to 4 µg/mL,< 10 µM,< 1 µg/mL
